Source: patent publication US20220062319A1, “COMBINATION IN THE TREATMENT OF NONTUBERCULOUS MYCOBACTERIAL DISEASES” (priority 2019, published 2022)
≈ marks a conversion by molar mass, not a printed value. Read-outs that look alike come from different tables or passages of the source.

How the values were obtained:
[1] = tested on: M. bovis; test: microbe, parasite or virus in culture; type: cell-based; conditions: Mycobacterium tuberculosis variant bovis, read-out: MIC Median
[2] = tested on: M. avium/M. intracellulare (MAC); test: Bedaquiline MIC, MAC; type: cell-based
[3] = tested on: M. kansasii; test: Bedaquiline MIC, M. kansasii; type: cell-based; conditions: Mycobacterium kansasii, n=1, read-out: MIC Median
[4] = tested on: M. marinum; test: Bedaquiline MIC, M. marinum; type: cell-based; conditions: Mycobacterium marinum, n=1, read-out: MIC Median
[5] = tested on: M. fortuitum; test: Bedaquiline MIC, M. fortuitum; type: cell-based
[6] = tested on: M. abscessus; test: Bedaquiline MIC, M. abscessus; type: cell-based; conditions: Mycobacteroides abscessus
[7] = tested on: M. smegmatis; test: Bedaquiline MIC, M. smegmatis; type: cell-based
[8] = tested on: M. ulcerans; test: Bedaquiline MIC, M. ulcerans; type: cell-based; conditions: Mycobacterium ulcerans
[9] = tested on: other mycobacterial species; test: organism not typed; type: cell-based
[10] = tested on: Mycobacterium xenopi; test: REMA MIC, control strain; type: cell-based; conditions: 168 h, control strain M. xenopi (×1), 7H9, 7 days
[11] = tested on: Mycobacterium avium; test: REMA MIC and MBC, M. avium; type: cell-based; conditions: M. avium clinical isolates (×4), one line per isolate; for MIC: REMA
[12] = tested on: Mycobacterium intracellulare; test: REMA MIC and MBC, M. intracellulare; type: cell-based; conditions: M. intracellulare clinical isolates (×4), one line per isolate; for MIC: REMA
[13] = tested on: Mycobacterium chimaera; test: REMA MIC and MBC, M. chimaera; type: cell-based; conditions: Mycobacterium intracellulare, M. chimaera clinical isolates (×3), one line per isolate; for MIC: REMA
[14] = tested on: Mycobacterium kansasii; test: REMA MIC and MBC, M. kansasii; type: cell-based
[15] = tested on: Mycobacterium simiae; test: REMA MIC and MBC, M. simiae; type: cell-based; conditions: M. simiae clinical isolates (×2), one line per isolate; for MIC: REMA
[16] = tested on: Mycobacterium marinum; test: REMA MIC and MBC, M. marinum; type: cell-based
[17] = tested on: NTM clinical isolates (slow grower mycobacteria); test: MBC determination, NTM clinical isolates overall; type: cell-based; conditions: MBC = lowest concentration killing 100% of the bacteria
Protocol: The MBC test allows determination of the minimum concentration of an agent necessary to achieve a bactericidal effect. The MBC was determined once the MIC was determined previously. To perform the MBC, the dilution representing the MIC and at least two of the more concentrated test product dilutions were plated and enumerated to determine viable CFU/ml. […] NTM clinical isolates used for this study were isolated from patients. In total, there were 18 isolates (in addition to the control strain): mycobacterium avium (x4 isolates), mycobacterium intracellulare (x4), mycobacterium chimaera (x3), mycobacterium kansasii (x2), mycobacterium ulcerans (x2), mycobacterium simiae (x2) and mycobacterium marinum (x1). […] MBC was considered the lowest concentration at which the bedaquiline kills 100% of the bacteria.

[18] = in vivo; cited from earlier work

COc1nc2ccc(Br)cc2cc1[C@@H](c1ccccc1)[C@@](O)(CCN(C)C)c1cccc2ccccc12 [Bedaquiline, (alpha S, beta R)-6-bromo-alpha-[2-(dimethylamino)ethyl]-2-methoxy-alpha-1-naphthalenyl-beta-phenyl-3-quinolineethanol]
MIC [1]: 0.003 µg/mL (≈ 0.0054 µM)
MIC ([2]; Mycobacterium avium, n=7, read-out: MIC Median): 0.01 µg/mL (≈ 0.018 µM)
MIC range ([2]; n=7): 0.007 to 0.010 µg/mL
MIC [3]: 0.003 µg/mL (≈ 0.0054 µM)
MIC [4]: 0.003 µg/mL (≈ 0.0054 µM)
MIC ([5]; Mycolicibacterium fortuitum, n=5, read-out: MIC Median): 0.01 µg/mL (≈ 0.018 µM)
MIC range ([5]; n=5): 0.007 to 0.010 µg/mL
MIC ([6]; 1 isolate of M. abscessus, read-out: MIC): 0.25 µg/mL (≈ 0.45 µM)
MIC ([6]; M. abscessus, n=1, read-out: MIC Median): 0.25 µg/mL (≈ 0.45 µM)
MIC ([7]; Mycolicibacterium smegmatis, n=7, read-out: MIC Median): 0.007 µg/mL (≈ 0.0126 µM)
MIC range ([7]; n=7): 0.003 to 0.10 µg/mL
MIC ([8]; 1 isolate of M. ulcerans, read-out: MIC): 0.5 µg/mL (≈ 0.9 µM)
MIC ([8]; M. ulcerans, n=1, read-out: MIC Median): 0.5 µg/mL (≈ 0.9 µM)
MIC [9]: < 0.1 µg/mL
MIC [10]: > 2 µg/mL
MBC [11]: 1 µg/mL (≈ 1.8 µM)
MIC [11]: 0.015 µg/mL (≈ 0.027 µM)
MIC ([11]; read-out: MIC): 0.007 µg/mL (≈ 0.0126 µM)
MBC [12]: 2 µg/mL (≈ 3.6 µM)
MIC [12]: 0.015 µg/mL (≈ 0.027 µM)
MIC ([12]; read-out: MIC): 0.007 µg/mL (≈ 0.0126 µM)
MBC [13]: 1 µg/mL (≈ 1.8 µM)
MIC [13]: 0.015 µg/mL (≈ 0.027 µM)
MIC ([13]; read-out: MIC): 0.007 µg/mL (≈ 0.0126 µM)
MIC [14]: 0.015 µg/mL (≈ 0.027 µM)
MBC [15]: 1 µg/mL (≈ 1.8 µM)
MIC [15]: 0.015 µg/mL (≈ 0.027 µM)
MIC ([15]; read-out: MIC): 0.03 µg/mL (≈ 0.054 µM)
MIC [16]: 0.015 µg/mL (≈ 0.027 µM)
MBC ([16]; M. marinum clinical isolate (×1)): 2 µg/mL (≈ 3.6 µM)
bactericidal activity [17]: bactericidal activity for the majority of clinical isolates tested
improvement of bioavailability with food [18]: approximately 2 fold
